Molecular target: Mitogen-activated protein kinase 1 (Homo sapiens, UniProt P28482)
Assay: ERK1 & ERK2 were then activated by the addition of F1-Substrate, ATP and metal solution and incubated for 1 h at rt. After 1 h, the reaction was terminated by the addition of […] of Termination Buffer (QuickScout Screening Assist MSA; Carna Biosciences) to the well.

Mitogen-activated protein kinase 1, sequence (P28482 whole entry): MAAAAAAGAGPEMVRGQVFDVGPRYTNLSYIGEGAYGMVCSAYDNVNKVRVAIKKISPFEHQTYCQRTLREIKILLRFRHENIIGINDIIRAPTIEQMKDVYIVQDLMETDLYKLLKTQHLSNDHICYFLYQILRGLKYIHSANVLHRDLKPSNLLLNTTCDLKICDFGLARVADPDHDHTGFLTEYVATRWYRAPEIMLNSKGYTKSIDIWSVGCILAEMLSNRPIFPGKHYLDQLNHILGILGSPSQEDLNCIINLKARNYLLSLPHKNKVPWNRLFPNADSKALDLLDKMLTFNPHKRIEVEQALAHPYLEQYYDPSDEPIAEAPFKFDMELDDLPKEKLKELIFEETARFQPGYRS

IC50: < 0.05 µM
SMILES: Cc1ncc(-c2n[nH]c3ccc(N4CC[C@]5(CCN(CC(=O)N6CC=C(c7ccc(-c8ncn(C)n8)cc7)CC6)C5)C4=O)nc23)s1
